In the NIST ThermoML archive (doi:10.1016/j.fluid.2015.07.030):
Numbers after ± are expanded uncertainties.

Assay: xn = mol fraction of the nth substance listed
Settings: 95.99 kPa, Liquid, Vibrating tube method

OCCOCCOCCO [triethylene glycol] + O
mass density [kg/m3]
Settings | 293.15 K | 298.15 K | 303.15 K | 308.15 K | 313.15 K
x2 = 0 | 1123.12 ± 0.25 | 1119.01 ± 0.25 | 1114.79 ± 0.25 | 1110.81 ± 0.25 | 1106.7 ± 0.3
x2 = 0.1056 | 1122.61 ± 0.25 | 1118.31 ± 0.25 | 1114.09 ± 0.25 | 1109.99 ± 0.25 | 1105.84 ± 0.24
x2 = 0.2069 | 1121.88 ± 0.25 | 1117.53 ± 0.25 | 1113.37 ± 0.24 | 1109.16 ± 0.24 | 1105.25 ± 0.24
x2 = 0.3103 | 1120.77 ± 0.24 | 1116.52 ± 0.24 | 1112.38 ± 0.24 | 1108.31 ± 0.24 | 1104.34 ± 0.24
x2 = 0.4843 | 1118.69 ± 0.24 | 1114.57 ± 0.24 | 1110.18 ± 0.24 | 1106.08 ± 0.24 | 1101.98 ± 0.24
x2 = 0.5016 | 1118.43 ± 0.24 | 1114.12 ± 0.24 | 1109.85 ± 0.24 | 1105.68 ± 0.24 | 1101.69 ± 0.23
x2 = 0.5952 | 1116.29 ± 0.24 | 1111.83 ± 0.24 | 1107.57 ± 0.24 | 1103.19 ± 0.23 | 1099.18 ± 0.23
x2 = 0.6015 | 1116.07 ± 0.24 | 1111.61 ± 0.24 | 1107.35 ± 0.24 | 1102.97 ± 0.23 | 1098.96 ± 0.23
x2 = 0.6787 | 1112.29 ± 0.23 | 1107.99 ± 0.23 | 1103.97 ± 0.23 | 1099.53 ± 0.23 | 1095.62 ± 0.24
x2 = 0.7835 | 1102.7 ± 0.22 | 1098.52 ± 0.23 | 1094.74 ± 0.23 | 1090.2 ± 0.23 | 1086.93 ± 0.23
x2 = 0.8183 | 1096.95 ± 0.23 | 1092.99 ± 0.23 | 1089.46 ± 0.23 | 1084.98 ± 0.23 | 1081.89 ± 0.23
x2 = 0.8472 | 1090.49 ± 0.23 | 1086.81 ± 0.23 | 1083.32 ± 0.23 | 1078.84 ± 0.23 | 1076.08 ± 0.22
x2 = 0.8719 | 1083.52 ± 0.22 | 1080.07 ± 0.23 | 1076.78 ± 0.23 | 1072.37 ± 0.22 | 1069.93 ± 0.22
x2 = 0.8925 | 1076.28 ± 0.22 | 1073.04 ± 0.22 | 1069.94 ± 0.23 | 1065.64 ± 0.22 | 1063.47 ± 0.22
x2 = 0.9106 | 1068.64 ± 0.22 | 1065.62 ± 0.22 | 1062.7 ± 0.22 | 1058.54 ± 0.22 | 1056.6 ± 0.22
x2 = 0.9254 | 1061.24 ± 0.22 | 1058.41 ± 0.22 | 1055.66 ± 0.22 | 1051.66 ± 0.22 | 1049.89 ± 0.21
x2 = 0.9303 | 1058.23 ± 0.22 | 1055.05 ± 0.22 | 1052.47 ± 0.22 | 1049.13 ± 0.22 | 1047.41 ± 0.21
x2 = 0.939 | 1053.42 ± 0.22 | 1050.36 ± 0.22 | 1048.08 ± 0.22 | 1044.27 ± 0.22 | 1042.63 ± 0.21
x2 = 0.951 | 1045.41 ± 0.21 | 1042.85 ± 0.22 | 1040.42 ± 0.22 | 1036.82 ± 0.21 | 1035.27 ± 0.21
x2 = 0.9599 | 1037.69 ± 0.21 | 1036.35 ± 0.21 | 1034.04 ± 0.22 | 1030.61 ± 0.21 | 1029.11 ± 0.21
x2 = 0.9707 | 1029.87 ± 0.21 | 1027.7 ± 0.21 | 1025.28 ± 0.21 | 1022.68 ± 0.21 | 1019.99 ± 0.21
x2 = 0.979 | 1021.78 ± 0.21 | 1019.75 ± 0.21 | 1017.72 ± 0.21 | 1014.8 ± 0.21 | 1013.28 ± 0.21
x2 = 0.9866 | 1013.57 ± 0.21 | 1011.61 ± 0.21 | 1009.56 ± 0.21 | 1007.37 ± 0.21 | 1005.16 ± 0.21
x2 = 0.9936 | 1005.7 ± 0.21 | 1003.82 ± 0.21 | 1001.99 ± 0.21 | 999.97 ± 0.21 | 997.49 ± 0.21
